Reference: PMC6803848, “Exploring New Structural Features of the 18β-Glycyrrhetinic Acid Scaffold for the Inhibition of Anaplastic Lymphoma Kinase” (Molecules, 2019)
≈ marks a conversion by molar mass, not a printed value.

Columns and labels:
A549 = test: MTT antiproliferative assay, A549 cells; assay type: cell-based; settings: Homo sapiens; for inhibition at 2 µg/mL: A549, 2 μg/mL; for inhibition at 2 µg/mL / inhibition at 20 µg/mL: 48 h, MTT, read-out: Antiproliferative activity (growth inhibition, %); for inhibition at 20 µg/mL: A549, 20 μg/mL; for IC50: A549, MTT
Experimental: (§1) All the cells were seeded in 96-well plates and incubated with 5% CO2 at 37 °C for 24 h. Next, the compounds and the reference were dissolved into the culture medium. The final concentration of DMSO in the medium was less than 0.5%. After the cells were treated with compounds for 48 h, the supernatant was removed and 5 mg/mL of a fresh prepared solution of MTT was added to each well and incubated with the cells at 37 °C for another 4 h. The medium was removed, and 100 μL of testing solution was added to each well. After an overnight incubation with 5% CO2 at 37 °C, the absorbance was measured at 490/630 nm by the microplate reader. The IC50 was calculated using GraphPad Prism version 6.0 software (San Diego, CA, USA) from the non-linear curve.

MCF-7 = test: MTT antiproliferative assay, MCF-7 cells; assay type: cell-based; settings: Homo sapiens, MCF7; MCF-7, MTT
Experimental: as §1

HepG2 = test: MTT antiproliferative assay, HepG2 cells; assay type: cell-based; settings: Homo sapiens
Experimental: as §1

HT29 = test: MTT antiproliferative assay, HT29 cells; assay type: cell-based; settings: Homo sapiens, HT-29; for inhibition at 2 µg/mL: HT29, 2 μg/mL; for inhibition at 2 µg/mL / inhibition at 20 µg/mL: 48 h, MTT, read-out: Antiproliferative activity (growth inhibition, %); for inhibition at 20 µg/mL: HT29, 20 μg/mL; for IC50: HT29, MTT
Experimental: as §1

Karpas299 = test: MTT antiproliferative assay, Karpas299 cells; assay type: cell-based; settings: Homo sapiens, KARPAS-299
Experimental: as §1

PC-3 = test: MTT antiproliferative assay, PC-3 cells; assay type: cell-based; settings: Homo sapiens; PC-3, MTT
Experimental: as §1

CC1(C)C2CC[C@]3(C)[C@H](C(=O)C=C4[C@@H]5C[C@@](C)(C(=O)O)CC[C@]5(C)CC[C@]43C)[C@@]2(C)CC[C@@H]1OC(=O)Nc1ccc(Cl)c(Cl)c1 (stereo partly drawn) [3a, 3β-(((3,4-dichlorophenyl)carbamoyl)oxy)-11-oxo-olean-12-en-30-oic acid]
inhibition at 2 µg/mL (A549): 23.9% | inhibition at 20 µg/mL (A549): 95.9% | IC50 (A549): 11.2 µg/mL (≈ 17 µM) | IC50 (MCF-7): 9.31 µg/mL (≈ 14.1 µM) | IC50 (HepG2): 11.6 µg/mL (≈ 17.6 µM) | inhibition at 2 µg/mL (HT29): 11.3% | inhibition at 20 µg/mL (HT29): 98% | IC50 (HT29): 11.4 µg/mL (≈ 17.4 µM) | IC50 (Karpas299): 12.3 µg/mL (≈ 18.7 µM) | melting point: 260 to 261.4 °C | IC50 (PC-3): 11.9 µg/mL (≈ 18.1 µM)

CC1(C)C2CC[C@]3(C)[C@H](C(=O)C=C4[C@@H]5C[C@@](C)(C(=O)O)CC[C@]5(C)CC[C@]43C)[C@@]2(C)CC[C@@H]1OC(=O)Nc1ccc(Cl)c(C(F)(F)F)c1 (stereo partly drawn) [3b, 3β-(((4-chloro-3-(trifluoromethyl)phenyl)carbamoyl)oxy)-11-oxo-olean-12-en-30-oic acid]
inhibition at 2 µg/mL (A549): 14% | inhibition at 20 µg/mL (A549): 77.3% | IC50 (A549): 11.9 µg/mL (≈ 17.2 µM) | IC50 (MCF-7): 8.92 µg/mL (≈ 12.9 µM) | IC50 (HepG2): 9.25 µg/mL (≈ 13.4 µM) | inhibition at 2 µg/mL (HT29): 14.1% | inhibition at 20 µg/mL (HT29): 87.7% | IC50 (HT29): 12 µg/mL (≈ 17.3 µM) | IC50 (Karpas299): 18.6 µg/mL (≈ 26.8 µM) | melting point: 247.8 to 248.5 °C | IC50 (PC-3): 12.1 µg/mL (≈ 17.4 µM)

CC1(C)C2CC[C@]3(C)[C@H](C(=O)C=C4[C@@H]5C[C@@](C)(C(=O)O)CC[C@]5(C)CC[C@]43C)[C@@]2(C)CC[C@@H]1OC(=O)Nc1cc(Cl)cc(Cl)c1 (stereo partly drawn) [3c, 3β-(((3,5-dichlorophenyl)carbamoyl)oxy)-11-oxo-olean-12-en-30-oic acid]
inhibition at 2 µg/mL (A549): 18.5% | inhibition at 20 µg/mL (A549): 95.4% | IC50 (A549): 12.3 µg/mL (≈ 18.6 µM) | IC50 (MCF-7): 5.53 µg/mL (≈ 8.4 µM) | IC50 (HepG2): 10.7 µg/mL (≈ 16.2 µM) | inhibition at 2 µg/mL (HT29): 8.39% | inhibition at 20 µg/mL (HT29): 98.6% | IC50 (HT29): 9.74 µg/mL (≈ 14.8 µM) | IC50 (Karpas299): 15.5 µg/mL (≈ 23.5 µM) | melting point: 236.1 to 237.7 °C | IC50 (PC-3): 15 µg/mL (≈ 22.7 µM)

CC1(C)C2CC[C@]3(C)[C@H](C(=O)C=C4[C@@H]5C[C@@](C)(C(=O)O)CC[C@]5(C)CC[C@]43C)[C@@]2(C)CC[C@@H]1OC(=O)Nc1cccc(Cl)c1 (stereo partly drawn) [3e, 3β-(((3-chlorophenyl)carbamoyl)oxy)-11-oxo-olean-12-en-30-oic acid]
inhibition at 2 µg/mL (A549): 14.3% | inhibition at 20 µg/mL (A549): 74.9% | IC50 (A549): 11.3 µg/mL (≈ 18.2 µM) | IC50 (MCF-7): 8.51 µg/mL (≈ 13.6 µM) | IC50 (HepG2): 11.9 µg/mL (≈ 19.1 µM) | inhibition at 2 µg/mL (HT29): 18.8% | inhibition at 20 µg/mL (HT29): 96.4% | IC50 (HT29): 10.9 µg/mL (≈ 17.5 µM) | IC50 (Karpas299): 7.31 µg/mL (≈ 11.7 µM) | IC50 (PC-3): 9.75 µg/mL (≈ 15.6 µM)

CC1(C)C2CC[C@]3(C)[C@H](C(=O)C=C4[C@@H]5C[C@@](C)(C(=O)O)CC[C@]5(C)CC[C@]43C)[C@@]2(C)CC[C@@H]1OC(=O)Nc1ccc(OC(F)(F)F)cc1 (stereo partly drawn) [3n, 3β-(((4-(trifluoromethoxy)phenyl)carbamoyl)oxy)-11-oxo-olean-12-en-30-oic acid]
inhibition at 2 µg/mL (A549): 20.1% | inhibition at 20 µg/mL (A549): 97.1% | IC50 (A549): 7.42 µg/mL (≈ 11 µM) | IC50 (MCF-7): 9.3 µg/mL (≈ 13.8 µM) | IC50 (HepG2): 12.6 µg/mL (≈ 18.6 µM) | inhibition at 2 µg/mL (HT29): 19% | inhibition at 20 µg/mL (HT29): 97.7% | IC50 (HT29): 11.3 µg/mL (≈ 16.8 µM) | IC50 (Karpas299): 26 µg/mL (≈ 38.5 µM) | melting point: 256.4 to 258.4 °C | IC50 (PC-3): 13.3 µg/mL (≈ 19.8 µM)

Cc1cc(C)cc(NC(=O)O[C@H]2CC[C@@]3(C)C(CC[C@]4(C)[C@@H]3C(=O)C=C3[C@@H]5C[C@@](C)(C(=O)O)CC[C@]5(C)CC[C@]34C)C2(C)C)c1 (stereo partly drawn) [3o, 3β-(((3,5-dimethylphenyl)carbamoyl)oxy)-11-oxo-olean-12-en-30-oic acid]
inhibition at 2 µg/mL (A549): 24.4% | inhibition at 20 µg/mL (A549): 86.3% | IC50 (A549): 3.24 µg/mL (≈ 5.24 µM) | IC50 (MCF-7): 7.86 µg/mL (≈ 12.7 µM) | IC50 (HepG2): 4.75 µg/mL (≈ 7.69 µM) | inhibition at 2 µg/mL (HT29): 55.8% | inhibition at 20 µg/mL (HT29): 98.2% | IC50 (HT29): 7.3 µg/mL (≈ 11.8 µM) | IC50 (Karpas299): 11.4 µg/mL (≈ 18.5 µM) | melting point: 279.8 to 280.6 °C | IC50 (PC-3): 10.7 µg/mL (≈ 17.3 µM)

CC1(C(=O)N2CCOCC2)CCC2(C)CCC3(C)C(=CC(=O)C4C5(C)CCC(OC(=O)Nc6ccc(OC(F)(F)F)cc6)C(C)(C)C5CCC43C)C2C1 (stereo not drawn) [4n, 3β-(((4-(trifluoromethoxy)phenyl)carbamoyl)oxy)-30-morpholino-olean-12-ene-11,30-dione]
inhibition at 2 µg/mL (A549): 0% | inhibition at 20 µg/mL (A549): 0% | inhibition at 2 µg/mL (HT29): 7.12% | inhibition at 20 µg/mL (HT29): 40.2% | melting point: 308 to 310.1 °C

CC1(C)C2CC[C@]3(C)[C@H](C(=O)C=C4[C@@H]5C[C@@](C)(C(=O)O)CC[C@]5(C)CC[C@]43C)[C@@]2(C)CC[C@@H]1OC(=O)CN1CCOCC1 (stereo partly drawn) [6a, 3β-(2-morpholinoacetoxy)-11-oxo-olean-12-en-30-oic acid]
inhibition at 2 µg/mL (A549): 0% | inhibition at 20 µg/mL (A549): 0% | inhibition at 2 µg/mL (HT29): 0% | inhibition at 20 µg/mL (HT29): 0% | melting point: 275.3 to 276.4 °C

CC1(C)C2CC[C@]3(C)[C@H](C(=O)C=C4[C@@H]5C[C@@](C)(C(=O)O)CC[C@]5(C)CC[C@]43C)[C@@]2(C)CC[C@@H]1OC(=O)CN1CCC(C(N)=O)CC1 (stereo partly drawn) [6b, 3β-(2-(4-carbamoylpiperidin-1-yl)acetoxy)-11-oxo-olean-12-en-30-oic acid]
inhibition at 2 µg/mL (A549): 0% | inhibition at 20 µg/mL (A549): 0% | inhibition at 2 µg/mL (HT29): 0% | inhibition at 20 µg/mL (HT29): 12.3% | melting point: 283.5 to 285 °C

CN1CCN(CC(=O)O[C@H]2CC[C@@]3(C)C(CC[C@]4(C)[C@@H]3C(=O)C=C3[C@@H]5C[C@@](C)(C(=O)O)CC[C@]5(C)CC[C@]34C)C2(C)C)CC1 (stereo partly drawn) [6c, 3β-(2-(4-methylpiperazin-1-yl)acetoxy)-11-oxo-olean-12-en-30-oic acid]
inhibition at 2 µg/mL (A549): 0% | inhibition at 20 µg/mL (A549): 0% | inhibition at 2 µg/mL (HT29): 0% | inhibition at 20 µg/mL (HT29): 0% | melting point: 287.5 to 288.9 °C

CC1(C)C2CC[C@]3(C)[C@H](C(=O)C=C4[C@@H]5C[C@@](C)(C(=O)O)CC[C@]5(C)CC[C@]43C)[C@@]2(C)CC[C@@H]1OC(=O)CN1CCN(c2ccccn2)CC1 (stereo partly drawn) [6d, 3β-(2-(4-(pyridin-2-yl)piperazin-1-yl)acetoxy)-11-oxo-olean-12-en-30-oic acid]
inhibition at 2 µg/mL (A549): 0% | inhibition at 20 µg/mL (A549): 0% | inhibition at 2 µg/mL (HT29): 0% | inhibition at 20 µg/mL (HT29): 0% | melting point: 294 to 295.6 °C

CC1(C(=O)O)CCC2(C)CCC3(C)C(=CC(=O)C4C5(C)CCC(OC(=O)Cc6ccc(Cl)cc6)C(C)(C)C5CCC43C)C2C1 (stereo not drawn) [7a, 3β-(2-(4-chlorophenyl)acetoxy)-11-oxo-olean-12-en-30-oic acid]
inhibition at 2 µg/mL (A549): 11.3% | inhibition at 20 µg/mL (A549): 27.4% | inhibition at 2 µg/mL (HT29): 33.3% | inhibition at 20 µg/mL (HT29): 57.5% | melting point: 312 to 312.7 °C

CC1(C)C2CC[C@]3(C)[C@H](C(=O)C=C4[C@@H]5C[C@@](C)(C(=O)O)CC[C@]5(C)CC[C@]43C)[C@@]2(C)CC[C@@H]1OC(=O)Cc1ccc(F)cc1 (stereo partly drawn) [7b, 3β-(2-(4-fluorophenyl)acetoxy)-11-oxo-olean-12-en-30-oic acid]
inhibition at 2 µg/mL (A549): 15.3% | inhibition at 20 µg/mL (A549): 31.2% | inhibition at 2 µg/mL (HT29): 44.1% | inhibition at 20 µg/mL (HT29): 59% | melting point: 305 to 307.7 °C

CC1(C)[C@@H](O)CC[C@]2(C)[C@H]3C(=O)C=C4[C@@H]5C[C@@](C)(C(=O)O)CC[C@]5(C)CC[C@@]4(C)[C@]3(C)CC[C@@H]12 [18β-GA, 18β-glycyrrhetinic acid]
inhibition at 2 µg/mL (A549): 0% | inhibition at 20 µg/mL (A549): 8.41% | IC50 (A549): > 40 µg/mL | IC50 (MCF-7): > 40 µg/mL | IC50 (HepG2): > 40 µg/mL | inhibition at 2 µg/mL (HT29): 0% | inhibition at 20 µg/mL (HT29): 12.9% | IC50 (HT29): > 40 µg/mL | IC50 (Karpas299): > 40 µg/mL | IC50 (PC-3): > 40 µg/mL

C[C@@H](Oc1cc(-c2cnn(C3CCNCC3)c2)cnc1N)c1c(Cl)ccc(F)c1Cl [Crizotinib, reference compound]
inhibition at 2 µg/mL (A549): 67.6% | inhibition at 20 µg/mL (A549): 97.3% | IC50 (A549): 1.27 µg/mL (≈ 2.82 µM) | IC50 (MCF-7): 1.84 µg/mL (≈ 4.09 µM) | IC50 (HepG2): 2.15 µg/mL (≈ 4.77 µM) | inhibition at 2 µg/mL (HT29): 68.8% | inhibition at 20 µg/mL (HT29): 99.8% | IC50 (HT29): 0.67 µg/mL (≈ 1.49 µM) | IC50 (Karpas299): 0.28 µg/mL (≈ 0.622 µM) | IC50 (PC-3): 3.3 µg/mL (≈ 7.33 µM)
